The subject of data set [1] is pERK in A375 (BRAF V600E). Nature of the data set: pERK modulation in vitro, MSD ELISA, A375. The note with it: Homo sapiens, A-375, 1 h, read-out: pERK EC50. Type of data set: cell-based. (In general: ELISA stands for enzyme-linked immunosorbent assay.)
In data set [2] the test system is AGK::BRAF fusion melanoma PDX. Nature of the data set: Antitumor efficacy in vivo, AGK::BRAF fusion melanoma PDX. Set-up: species or system mice. The note with it: for effect on tumor growth: NOD/SCID mice. The procedure: (§1) Female mice with tumors harboring an AGK::BRAF fusion melanoma PDX or NF1-LOF ERMS PDX were established by inoculating NOD or NOG/SCID mice, respectively, with tumor fragments harvested from stock mice. Mice with tumors harboring an NF1-LOF mutation MeWo xenograft were established in 10 mice per treatment group by inoculating 7- to 9-week-old female BALB/c nude mice on the right flank with tumor cells (5 × 10^6) in 0.1 mL of PBS mixed with Matrigel (1:1) for tumor development. For the AGK::BRAF fusion melanoma PDX model, 7- to 8-week-old mice were inoculated subcutaneously on the right flank and randomized into eight mice per treatment group. For the NF1-LOF ERMS PDX model, tumor fragments were harvested from stock animals and implanted unilaterally on the left flank of 6- to 8-week-old mice and then the mice were randomized into 10 mice per treatment group. After tumor cell inoculation, the animals were checked daily for morbidity and mortality. All experiments were performed once.
Purified water (type II or high-performance liquid chromatography grade) was used as aqueous suspension vehicle and control for in vivo efficacy experiments. […] Tovorafenib was freshly prepared every day prior to dosing.
Randomization was performed based on the “Matched distribution” method (StudyDirector software, version 3.1.399.19) with the date of randomization denoted as day 0. Tumor volumes and body weight were measured twice per week after randomization. Tumor volume was measured in two dimensions (2D) using a caliper, and the volume was expressed in mm^3 using the formula V = (L × W × W)/2, in which V was tumor volume, L was tumor length (the longest tumor dimension), and W was tumor width (the longest tumor dimension perpendicular to L). Percentage change in tumor volume and body weight was calculated using StudyDirector software (version 3.1.399.19).
The mice in the control vehicle group were dosed either daily or twice daily.

Data set [3] deals with pERK in AGK::BRAF fusion melanoma PDX tumors. Nature of the data set: pERK modulation in vivo (PK-PD study), AGK::BRAF fusion melanoma PDX tumors, Western blot. Set-up: species or system mice. Here is the method:
Tumor and plasma samples were collected at 4, 8, and 24 hours after dose administration (three mice per timepoint). […] Tumor and plasma samples were collected at 4 and 24 hours after dose administration (three mice per time point). Tumor samples were snap-frozen and analyzed by Western blotting for pERK levels. Plasma samples were analyzed by the LC/MS-MS method to confirm plasma drug concentration.
Tumor samples were lysed with RIPA buffer (Thermo Fisher Scientific, cat. no. 89901) containing one complete EDTA-free tablet (Roche, cat. no. 05892791001) and one phosphatase inhibitor cocktail tablet (Roche, cat. no. 04906845001) per 10 mL of RIPA buffer. Protein concentration was determined using bicinchoninic acid assay (Pierce, cat. no. 23227). Samples were loaded at 25 to 30 μg/lane on 4% to 12% NuPAGE Bis-Tris gels (Invitrogen, cat. no. WG1403BOX) and were run in MOPS-SDS running buffer (Invitrogen, cat. no. NP0001) at constant voltage (120V) for approximately 2 hours. The gels were transferred onto a pre-activated polyvinylidene fluoride membrane (Millipore, cat. no. IPVH00010) in transfer buffer (Bio-Rad, cat. no. 161-0734). […] Blots were scanned and quantified using the Odyssey (LI-COR Biosciences) or Tanon 5200 Multi Image system (Tanon), and each sample was normalized to allow comparison.
On the technique in general: In western blotting, separated proteins are transferred to a membrane and probed.

In another data set the test system is NF1-LOF ERMS PDX. Kind of data set: Antitumor efficacy in vivo, NF1-LOF ERMS PDX. More on the design: species or system mice. The note with it: 25 mg/kg orally daily for 21 days. The procedure: as §1, with “For the NF1-LOF ERMS PDX model, tumor fragments were harvested from stock animals and implanted unilaterally on the left flank of 6- to 8-week-old mice and then the mice were randomized into 10 mice per treatment group. After tumor cell inoculation, the animals were checked daily for morbidity and mortality. All experiments were performed once.” left out
(§2) Randomization was performed based on the “Matched distribution” method (StudyDirector software, version 3.1.399.19) with the date of randomization denoted as day 0. Tumor volumes and body weight were measured twice per week after randomization. Tumor volume was measured in two dimensions (2D) using a caliper, and the volume was expressed in mm^3 using the formula V = (L × W × W)/2, in which V was tumor volume, L was tumor length (the longest tumor dimension), and W was tumor width (the longest tumor dimension perpendicular to L). Percentage change in tumor volume and body weight was calculated using StudyDirector software (version 3.1.399.19). […]

In the next data set the test system is NF1-LOF MeWo xenograft. Nature of the data set: Antitumor efficacy in vivo, NF1-LOF MeWo xenograft. The conditions noted are these: 25 mg/kg orally daily for 28 days. Set-up: species or system mice. The procedure: as §1, with “For the NF1-LOF ERMS PDX model, tumor fragments were harvested from stock animals and implanted unilaterally on the left flank of 6- to 8-week-old mice and then the mice were randomized into 10 mice per treatment group. After tumor cell inoculation, the animals were checked daily for morbidity and mortality. All experiments were performed once.” left out
as §2

Another data set concerns MeWo. Nature of the data set: CellTiter-Glo cell viability assay, MeWo. For orientation: In ATP-based viability assays light output follows the ATP content of the culture.
Another data set deals with A375. Nature of the data set: CellTiter-Glo cell viability assay, A375.
The test system of the next data set is pERK in MeWo (NF1-LOF). Nature of the data set: pERK modulation in vitro, MSD ELISA, MeWo. The note with it: Homo sapiens, 1 h, read-out: pERK EC50.
A further data set relates to NCI-H1838. Nature of the data set: CellTiter-Glo cell viability assay, NCI-H1838.
The test system of data set [4] is pERK in NCI-H1838 (NF1-LOF). Nature of the data set: pERK modulation in vitro, MSD ELISA, NCI-H1838.

The results in this text go back to article PMC12015663 (Cancer Research Communications, 2025).

`C[C@@H](NC(=O)c1ncnc(N)c1Cl)c1ncc(C(=O)Nc2cc(C(F)(F)F)c(Cl)cn2)s1` [Tovorafenib]: the EC50 was 0.07 µM in [1]; 7.5 µM in the data set with MeWo (Homo sapiens, 72 h, read-out: Proliferation EC50); 0.62 µM with A375 (Homo sapiens, A-375, 72 h, read-out: Proliferation EC50); 8.3 µM in the data set on pERK in MeWo (NF1-LOF); greater than 10 µM in the data set with NCI-H1838 (Homo sapiens, NCI-H1838, 72 h, read-out: Proliferation EC50); greater than 10 µM in data set [4] (Homo sapiens, NCI-H1838, 1 h, read-out: pERK EC50). Moreover, in [2] (17.5 mg/kg daily, approximately 2 weeks after the last dosage), the “day on which tumors started to regrow” value was determined as 28 days. The “effect on tumor growth” value in data set [2] (17.5 mg/kg orally daily for 14 days) and in [2] (25 mg/kg orally daily for 14 days) was “tumor regression was observed” throughout. Besides, the tolerability result is recorded as “well tolerated” in data set [2] (25 and 17.5 mg/kg orally daily, both dose levels); “well tolerated” in the data set with NF1-LOF ERMS PDX; “well tolerated” in the data set with NF1-LOF MeWo xenograft. The body weight loss result in data set [2] (25 and 17.5 mg/kg orally daily, throughout the treatment) is reported as “no significant body weight loss”. For the same compound, the “time tumor regression was sustained after the last dose” value in data set [2] (both efficacy studies (25 and 17.5 mg/kg), last dose on day 14) is on record as “at least 7 days”. For the same compound, the “pERK in tumor compared with vehicle control” value in [3] (single oral dose 17.5 mg/kg, 8 and 24 hours after dose) is “Inhibition of pERK was observed”; in [3] (single oral dose 25 mg/kg, 4, 8, and 24 hours after dose), “Inhibition of pERK was observed”. In addition, the antitumor activity entry in the data set on NF1-LOF ERMS PDX and with NF1-LOF MeWo xenograft (BALB/c nude mice) was “Lack of significant antitumor activity” each time. The “anti-proliferative activity” value in the data set with MeWo (CTG 72 hours) is recorded as “little activity”; with A375 (A375, CTG 72 hours) it was “potent”; in the data set with NCI-H1838 (NCI-H1838, CTG 72 hours), “little activity”. Further, the “extent of the pERK increase” value in data set [4] (NCI-H1838, 1 hour after treatment, compared across type II RAF inhibitors) is “higher extent”. Also, in data set [4] (NCI-H1838, 6 hours after treatment), the “pERK increase across the full concentration range” value was “lack of increase in pERK”.
